The structures appear in SMILES notation.

Our source for the EC50 and IC50 values is patent US10344026B2, “Compositions and methods of targeting mutant K-ras” (NANTBIO, INC., priority 2017, dated 2019).

Assay type in all cases: cell-based
Assay [1] relates to phospho-ERK in HCC827 (Wild-type). The experiment in a line: In-Cell Western phospho-ERK, HCC827. Particulars: Homo sapiens, 1 h; HCC827, one hour treatment; read-out: In-Cell Western HCC827 (Wild-type) Erk (P). As to the method:
(§1) In-cell phosphorylation assays for Erk and Akt were performed on several of the compounds and exemplary results are shown in Table 3 below using HCC827 and A375 cell lines for wild type K-Ras and Panc1 and Panc10.05 cell lines for G12D K-Ras mutants. Results are expressed in μM and corresponding structures are shown in FIGS. 2A-2G and Examples 1-152, above.
(§2) Cells are seeded in complete medium into black sided, clear-bottom 384-well microplates at 3000 cells/[…]/well. Plates are returned to 37° C. CO2 incubator for 18 hr. Drug is made as 200× in DMSO and diluted into medium to 10×. To each well is added 4 ul 10× test article or controls, and plates are returned to the incubator. Final assay DMSO concentration is 0.5%. After one hour, cells are fixed in formaldehyde, rinsed & permeabilized with triton X-100, and blocked with BSA/Goat serum blocking solution. Primary phospho-Akt and phospho-ERK antibodies are added and plates are incubated overnight at 4° C. Plates are rinsed with Tween-20 wash buffer and secondary antibody (Goat anti-rabbit, Thermofisher) is added. After 2 hours, plates are rinsed in Tween-20 wash buffer, and then PBS. Plates are imaged on the Celigo (Nexcelom) and cellular fluorescence is quantitated. Full inhibition of phospho-Akt is achieved with 1 uM BEZ235 (Sellekchem), while full inhibition of phospho-ERK is achieved with 1 uM MEK Inhibitor II Calbiochem). EC50 values are calculated using Graphpad Prism.

The test system of assay [2] is phospho-Akt in A375 (Wild-type). In words: In-Cell Western phospho-Akt, A375. Particulars: Homo sapiens, A-375, 1 h; A375, one hour treatment; read-out: In-Cell Western A375 (Wild-type) Akt (P). As to the method: as §1, §2
The test system of assay [3] is Panc1-G12D. The experiment in a line: Viability assay (CellTiterBlue, 72 hr) Panc1. To be noted: Homo sapiens, PANC-1, GI50, CellTiterBlue, Panc1 K-Ras G12D, read-out: 72 hr Cell Viability Panc1 (G12D). In short, it runs like this:
(§3)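 GI50 calculation uses a window set by DMSO-treated wells (100% viability) and 100 uM tamoxifen (0%). Cells (1000/well) sit 18 hr at 37 °C, receive compound for 72 hr in 0.5% DMSO, then get CellTiterBlue for 3 hr before reading at Ex550/Em590.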
In general terms: Resazurin is reduced to fluorescent resorufin, in cell work by metabolically active cells.

Assay [4] has as its system A375 (K-Ras wild type cell line). In words: Viability assay (CellTiterBlue, 72 hr) A375. Particulars: Homo sapiens, A-375, GI50, CellTiterBlue. The method, then:
Viability assays were performed on exemplary compounds and Table 2 below lists exemplary results for selected compounds tested on K-Ras wild type cell lines (Ishikawa, U87-MG, HCC827, and A375) and various K-Ras mutant cell lines (Panc1-G12D; Panc10.05-G12D; HCT116-G31D). Results are expressed in μM and corresponding structures are shown in FIGS. 2A-2G and Examples 1-152, above.
Cells are counted and seeded at 1000 cells/36 ul medium/well into 384-well microplates. Cells are returned to 37° C. CO2 incubator for 18 hr. Drug is made as 200× in DMSO and diluted into medium to 10×. To each well is added 4 ul 10× drug, and plates are returned to the incubator. Final assay DMSO concentration is 0.5%. After 72 hr, 8 ul CellTiterBlue (Promega) is added to each well. After 3 hr, fluorescence (Ex550/Em590) is determined on the Victor Plate Reader (Perkin Elmer). Assay range is determined by DMSO control (100% viability) and 100 uM tamoxifen (0% viability). GI50 values are calculated using Graphpad Prism.

Assay [5] relates to Ishikawa (K-Ras wild type cell line). In words: Viability assay (CellTiterBlue, 72 hr) Ishikawa. Particulars: Homo sapiens, GI50, CellTiterBlue, Ishikawa K-Ras wild-type. In outline:
as §3

Assay [6] deals with HCC827 (K-Ras wild type cell line). In words: Viability assay (CellTiterBlue, 72 hr) HCC827. Particulars: Homo sapiens, GI50, CellTiterBlue, HCC827 K-Ras wild-type. In outline:
as §3

Assay [7] has as its system phospho-Akt in Panc1 (G12D). The experiment in a line: In-Cell Western phospho-Akt, Panc1. Particulars: Homo sapiens, PANC-1, 1 h; Panc1, one hour treatment; read-out: In-Cell Western Panc1 (G12D) Akt (P). In short, it runs like this: (§4)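 Cells were seeded at 3000 cells/well, incubated 18 hr at 37° C, then treated with compound for 1 hr (0.5% DMSO final). After fixation, permeabilization and blocking, phospho-Akt or phospho-ERK antibodies were applied overnight at 4° C, followed by secondary antibody; cellular fluorescence was imaged and EC50 calculated.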

In assay [8] the test system is phospho-ERK in A375 (Wild-type). The experiment in a line: In-Cell Western phospho-ERK, A375. Particulars: Homo sapiens, A-375, 1 h; A375, one hour treatment; read-out: In-Cell Western A375 (Wild-type) Erk (P). The method, then: as §1, §2
In assay [9] the test system is phospho-ERK in Panc10.05 (G12D). The experiment in a line: In-Cell Western phospho-ERK, Panc10.05. Particulars: Homo sapiens, Panc1005, 1 h; Panc10.05, one hour treatment; read-out: In-Cell Western Panc10.05 (G12D) Erk (P). In short, it runs like this:
as §4

For assay [10], the system named is phospho-Akt in Panc10.05 (G12D). In words: In-Cell Western phospho-Akt, Panc10.05. Particulars: Homo sapiens, Panc1005, 1 h; Panc10.05, one hour treatment; read-out: In-Cell Western Panc10.05 (G12D) Akt (P). In short, it runs like this: as §4
Assay [11] relates to U87-MG (K-Ras wild type cell line). The experiment in a line: Viability assay (CellTiterBlue, 72 hr) U87-MG. To be noted: Homo sapiens, U-87 MG, GI50, CellTiterBlue, U87-MG K-Ras wild-type. In outline:
as §3

Assay [12] deals with T1, K-Ras G12D (Homo sapiens, UniProt P01116, G12D).
T1 construct: expressed in transfected cells; host or cells: 293H cells
In words: G-LISA Ras activation, 293H cells transfected with G12D mutant. To be noted: compound 1 hour. In short, it runs like this: (§5)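 Cells: 293H, Ras plasmid transfection (5 μg). Cpd 3.125-25 μM, 1 h; WT cells + EGF 100 ng/ml, 2 min. Lysed on ice; active Ras by G-LISA.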

The test system of assay [13] is phospho-ERK in Panc1 (G12D). In words: In-Cell Western phospho-ERK, Panc1. Particulars: Homo sapiens, PANC-1, 1 h; Panc1, one hour treatment; read-out: In-Cell Western Panc1 (G12D) Erk (P). In outline:
as §4

Assay [14] relates to Panc10.05-G12D. The experiment in a line: Viability assay (CellTiterBlue, 72 hr) Panc10.05. Particulars: Homo sapiens, Panc1005, GI50, CellTiterBlue, Panc10.05 K-Ras G12D, read-out: 72 hr Cell Viability Panc10.05 (G12D). In outline:
as §3

For assay [15], the system named is HCT116-G31D. The experiment in a line: Viability assay (CellTiterBlue, 72 hr) HCT116. To be noted: Homo sapiens, HCT-116, GI50, CellTiterBlue, HCT116 K-Ras G13D, read-out: 72 hr Cell Viability HCT116 (G13D). In outline: as §3
The target of assay [16] is T2, wild type K-Ras (Homo sapiens, UniProt P01116).
T2 construct: expressed in transfected cells; host or cells: 293H cells
In words: G-LISA Ras activation, 293H cells transfected with Ras wild-type, EGF stimulated. To be noted: compound 1 hour, then 100 ng/ml EGF 2 minutes. In short, it runs like this: as §5

T1 sequence (P01116 whole entry G12D): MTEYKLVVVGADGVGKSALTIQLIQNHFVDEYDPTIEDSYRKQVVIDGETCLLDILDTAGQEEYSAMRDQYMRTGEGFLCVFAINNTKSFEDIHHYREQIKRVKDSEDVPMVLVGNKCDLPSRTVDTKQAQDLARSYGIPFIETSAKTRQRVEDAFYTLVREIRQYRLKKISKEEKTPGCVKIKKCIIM
T2 sequence (P01116 whole entry): as the sequence (P01116 whole entry G12D) above, with D12G counted along it

Consider `CC(C)c1cc(C(=O)Nc2nc(-c3ccc4c(c3)CCC(=O)N4)cs2)n(C)n1` [Compound 44, 3-isopropyl-1-methyl-N-(4-(2-oxo-1,2,3,4-tetrahydroquinolin-6-yl)thiazol-2-yl)-1H-pyrazole-5-carboxamide], for which the EC50 in assay [1], in [2], in [7], in [8], in [9] and in [10] was above 25 µM throughout. For the same molecule, the EC50 in assay [13] was above 25 µM. Also, the IC50 in [3] is above 25 µM; in [4], above 25 µM; in [5], above 25 µM; in [6], above 25 µM; in assay [11], above 25 µM; in assay [12], 4 µM. For the same molecule, the IC50 is 2 µM in assay [14] and above 25 µM in assay [15].

Regarding `Cc1nc(C)c(C(=O)Nc2nc(-c3ccc4c(c3)CCC(=O)N4CCC(=O)N(C)C)cs2)o1` [Compound 103, N-(4-(1-(3-(dimethylamino)-3-oxopropyl)-2-oxo-1,2,3,4-tetrahydroquinolin-6-yl)thiazol-2-yl)-2,4-dimethyloxazole-5-carboxamide], the EC50 in assay [1] was 14 µM; in assay [2], above 25 µM; in [7] it was above 25 µM; in assay [8] it was 29 µM; in [9] it was above 25 µM; in assay [10], above 25 µM. For the same molecule, the EC50 in [13] was above 25 µM. For the same molecule, the IC50 in assay [3] was above 25 µM; in assay [4], above 25 µM; in assay [5] it was above 25 µM; in assay [6] it was above 25 µM; in [11] it was above 25 µM; in assay [12], 14.9 µM. Also, the figures for the IC50 in [14] and in [15] were 5 µM and 25 µM, respectively.

As to `CCn1nccc1C(=O)Nc1nc(-c2ccc3c(c2)CCC(=O)N3)cs1` [Compound 46, 1-ethyl-N-(4-(2-oxo-1,2,3,4-tetrahydroquinolin-6-yl)thiazol-2-yl)-1H-pyrazole-5-carboxamide], the EC50 is above 25 µM in [1]; above 25 µM in assay [2]; above 25 µM in assay [7]; above 25 µM in [8]; 11 µM in assay [9]; 13 µM in assay [10]. In addition, the EC50 in assay [13] was above 25 µM. Also, the IC50 in assay [3] was above 25 µM; in assay [4], above 25 µM; in assay [5], above 25 µM; in [6] it was above 25 µM; in assay [11], above 25 µM; in [12] it was 22.5 µM. Moreover, the results for the IC50 in assay [14] and in assay [15] were 11 µM and above 25 µM, respectively.

Take `CCc1nc(C)c(C(=O)Nc2nc(-c3ccc4c(c3)CCC(=O)N4C(C)c3cccnc3)cs2)o1` (stereo not drawn) [Compound 102, 2-ethyl-4-methyl-N-(4-(2-oxo-1-(1-(pyridin-3-yl)ethyl)-1,2,3,4-tetrahydroquinolin-6-yl)thiazol-2-yl)oxazole-5-carboxamide]: the EC50 was 11 µM in assay [1]; above 25 µM in assay [2]; above 25 µM in assay [7]; 26 µM in assay [8]; 19 µM in assay [9]; above 25 µM in assay [10]. In assay [13], the EC50 amounted to 8 µM. Besides, the IC50 in assay [3] was above 25 µM; in [4], above 25 µM; in assay [5], above 25 µM; in assay [6], above 25 µM; in assay [11], above 25 µM; in assay [12] it was 8.2 µM. Also, the IC50 in assay [14] came to 5 µM; in assay [15], 13 µM.

Consider `Cc1nc(C2CCC2)oc1C(=O)Nc1nc(-c2ccc3c(c2)CCC(=O)N3Cc2cccnc2)cs1` [Compound 92, 2-cyclobutyl-4-methyl-N-(4-(2-oxo-1-(pyridin-3-ylmethyl)-1,2,3,4-tetrahydroquinolin-6-yl)thiazol-2-yl)oxazole-5-carboxamide], for which the EC50 in [1] is 15 µM; in assay [2] it was above 25 µM; in assay [8], above 25 µM; in assay [9], 2 µM; in assay [10], 17 µM; in assay [13], 6 µM. The IC50 in assay [16] was 15.2 µM; in [3], 6 µM; in assay [4], above 25 µM; in assay [5], above 25 µM; in [6], 4 µM; in assay [11], above 25 µM. The IC50 in assay [12] came out at 8.5 µM; in assay [14] it was 3 µM; in assay [15] it was 1.5 µM.

As to `Cc1nc(C)c(C(=O)Nc2nc(-c3ccc4c(c3)CCC(=O)N4Cc3cccnc3)cs2)s1` [Compound 105, 2,4-dimethyl-N-(4-(2-oxo-1-(pyridin-3-ylmethyl)-1,2,3,4-tetrahydroquinolin-6-yl)thiazol-2-yl)thiazole-5-carboxamide], the EC50 is 19 µM in assay [1]; above 25 µM in assay [2]; above 25 µM in [7]; above 25 µM in [8]; 11 µM in assay [9]; above 25 µM in assay [10]. Further, the EC50 in assay [13] amounted to 5 µM. The IC50 was 12 µM in assay [3]; 25 µM in assay [4]; above 25 µM in assay [5]; above 25 µM in assay [6]; above 25 µM in assay [11]; 10.4 µM in assay [12]. The IC50 in [14] turned out to be 2 µM; in assay [15] it was 13 µM.
